Experimental data taken from patent publication US10398789B2, “Methods, compositions and kits for providing a therapeutic treatment” (priority 2010, dated 2019).

How the values were obtained:
cancer = test: Growth of cancer in treated cancer patients (summary of empirical findings); type: in vivo, human; details: Cytomel at 5-40 μg/day
Source text: (§1) These clinical findings correlated with the subject being at a state of moderate hypothyroidism, as indicated by the low levels (below normal) of T4 in the subject's blood and above normal values of TSH; • combined treatment of cancer subjects with an anti-thyroid agent, such as methimazole or PTU, in combination with Cytomel®, slowed tumor growth and/or enhanced sensitivity of the tumor cells to chemotherapy and/or radiation therapy.

[1] = T4 / FT4 levels in treated cancer patients (summary of empirical findings); type: in vivo, human; details: Cytomel at 5-40 μg/day
Source text: as §1

[2] = tested on: grade IV glioblastoma (GBM); test: Brain MRI tumor response, glioblastoma subject (Example 1); type: in vivo, human; details: Example 1, tumor recurrence about two years later; regimen as labelled
[3] = Free T4 / TSH monitoring under hypothyroid induction therapy, glioblastoma subject (Example 1); type: in vivo, human; details: Example 1 GBM subject; PTU 600 mg/day in parallel with temozolomide; after about 12 weeks of treatment
Protocol: Shortly thereafter carboplatin treatment (7 mg/kg) was initiated along with continuation of the thyroid reduction therapy, using 600 mg/day PTU.
In order to achieve hypothyroxinemia, in addition to PTU, 5 μg of triiodotionine (T3) was added 3 times a day in order to inhibit TSH and reduce thyroxine level.

[4] = tested on: malignant fibrous histiocytoma (MFH) of the left pulmonary vein; test: Tumor size / mass, subject with malignant fibrous histiocytoma (Example 2); details: methimazole 40 mg/day with palliative radiation (46Gy), after 2 months
[5] = Free T4 level, subject with malignant fibrous histiocytoma (Example 2); type: in vivo, human; details: methimazole 40 mg/day with palliative radiation (46Gy), after 2 months
Protocol: The subject was maintained on Cytomel® 5 μg, three times a day and methimazole (reduced to 30 mg once a day).

Q: Which results are given for N[C@@H](Cc1cc(I)c(Oc2ccc(O)c(I)c2)c(I)c1)C(=O)O [Cytomel®, Liothyronine sodium]?
A: growth of the cancer (cancer): slows the growth of the cancer; T4 levels [1]: decrease in T4 levels

Q: For N.N.O=C([O-])C1(C(=O)[O-])CCC1.[Pt+2] [carboplatin], which “tumor response on MRI at recurrence” value [2] is on record?
A: The value was “no response”.

Q: With CCCc1cc(=O)[nH]c(=S)[nH]1 [PTU, propylthiouracil] as the compound, how does the T4 levels [3] read?
A: The T4 levels was “slightly reduced”.

Q: Which tumor size [4] does the source give for Cn1cc[nH]c1=S [methimazole] here?
A: The tumor size was “no change”.

Q: And the “free T4 level” value [5]?
A: Its value is “no change”.
